pIC50: −log10 of the molar value.

For assay [1], the target named is GR complex. Description: [35S]TBPS binding assay (inhibition of [35S]TBPS binding, cerebral cortex P2 homogenate). Further details: species or system rat. The settings on record: for pIC50: 2 nM [35S]TBPS, rat cerebral cortex P2 homogenate; for IMAX: maximum inhibition of [35S]TBPS binding. The gist of the method:
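Rat (male Sprague-Dawley) cortical P2 homogenate (0.5 mg protein) in 50 mM Na/K phosphate pH 7.4, 200 mM NaCl, incubated with 2 nM [35S]TBPS plus steroid test compounds (DMSO) in presence of GABA plus (+)bicuculline, 25°C, 90 min. Filtration, scintillation counting; nonspecific binding defined with […].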

Assay [2] has as its target T1, Hippocampal Mineralocorticoid Receptors (Rattus norvegicus, UniProt P22199).
T1 construct: To isolate the mineralocorticoid receptor, brain cytosol fractions were prepared; from tissue; host or cells: rat brain (hippocampal) cytosol
T1 sequence (P22199 1-981): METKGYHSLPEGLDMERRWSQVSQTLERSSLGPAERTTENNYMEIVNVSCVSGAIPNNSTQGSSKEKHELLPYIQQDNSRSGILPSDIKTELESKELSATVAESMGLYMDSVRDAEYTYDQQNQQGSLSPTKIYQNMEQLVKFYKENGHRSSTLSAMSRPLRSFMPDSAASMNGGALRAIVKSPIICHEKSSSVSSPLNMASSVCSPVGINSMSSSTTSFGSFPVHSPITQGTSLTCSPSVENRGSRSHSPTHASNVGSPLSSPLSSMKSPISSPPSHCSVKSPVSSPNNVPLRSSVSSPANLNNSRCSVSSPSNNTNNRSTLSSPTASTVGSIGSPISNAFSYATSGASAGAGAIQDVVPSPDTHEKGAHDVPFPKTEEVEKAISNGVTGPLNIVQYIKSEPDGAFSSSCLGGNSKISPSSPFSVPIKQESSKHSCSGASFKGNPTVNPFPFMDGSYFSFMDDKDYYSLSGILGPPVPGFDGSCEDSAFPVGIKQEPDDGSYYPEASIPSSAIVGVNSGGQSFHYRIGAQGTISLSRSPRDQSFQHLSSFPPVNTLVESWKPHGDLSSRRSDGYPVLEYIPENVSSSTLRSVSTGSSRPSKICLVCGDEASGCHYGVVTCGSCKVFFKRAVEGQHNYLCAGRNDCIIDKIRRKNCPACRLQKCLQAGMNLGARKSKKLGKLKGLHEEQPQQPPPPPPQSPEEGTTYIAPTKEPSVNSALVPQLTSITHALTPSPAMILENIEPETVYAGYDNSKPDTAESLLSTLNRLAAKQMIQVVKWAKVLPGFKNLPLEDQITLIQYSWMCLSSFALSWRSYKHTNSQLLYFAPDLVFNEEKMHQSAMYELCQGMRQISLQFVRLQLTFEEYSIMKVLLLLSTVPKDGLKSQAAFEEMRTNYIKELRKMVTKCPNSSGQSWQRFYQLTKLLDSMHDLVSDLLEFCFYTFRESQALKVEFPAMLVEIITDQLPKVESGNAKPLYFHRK
Description: Inhibition of 3H-aldosterone binding, brain cytosol. Further details: species or system rats. To be noted: competitor 10^-6M; 3 nM 3H-aldosterone, RU28362 0.5 µM. As for the experimental part:
Various hormonal activities of representative neuroactive steroids were further studied through testing their potential estrogenic, mineralocorticoid and glucocorticoid activities. These activities were analyzed by monitoring the ability of the compounds to inhibit binding of the steroid hormones to their respective hormone receptors.
In Table 3, rats were adrenalectomized 3 days prior to sacrifice. […] Table 2. Inhibition of 3H-Progesterone Binding to the Bovine Uteral Progesterone Receptors
Table 3. Inhibition of 3H-Aldosterone Binding to Hippocampal Mineralocorticoid Receptors

For assay [3], the system named is N.I.H. Swiss-Webster mice. Kind of assay: Light/dark transition test. It is filed as in vivo. To be noted: IP, 10 min test, vs control, Dunnett's t-test (Fig. 8).
Description: Male N.I.H. Swiss-Webster mice (Harlan, Harlan, Indianapolis, IN) weighing 15-20 g were housed four per cage in polyethylene cages with sawdust bedding. The colony room was environmentally controlled (22°C) with a hr light/dark cycle (0600-1800hr). Food and water were available ad libitum, except during testing. The experiments were run from 0700-1500 hr and groups were counterbalanced for time of day effects. Mice were only administered drug or vehicle once.
The apparatus included two 2-compartment automated test chambers (Model RXYZCM16, Omnitech Electronics, Columbus, OH). The open compartment was connected to the enclosed compartment via a 7.5 × 7.5 cm passageway. The open compartment was brightly lit using a 200 W incandescent light bulb. The experimental room was kept dark. Interruptions of the infrared beams in either chamber were automatically recorded by being linked to a computer through a Digiscan Analyzer (Omnitech and the data was analyzed using the Integrated Lab Animal Monitoring System (Omnitech Electronics). N.IH. Swiss-Webster mice were administered vehicle or test drug intraperiotoneally (IP),10 min later they were placed in the center of the lit compartment. The number of transitions between the lit and dark chambers, total activity in the lit chamber and the time spent in the lit chamber were measured during a 10 min test period.
Assay [4] relates to N.I.H. Swiss-Webster mice. Kind of assay: Elevated plus-maze. To be noted: 5 min test, ten minutes after injection (Fig. 9A). The format is in vivo. From the text:
The theoretical basis for the elevated plus-maze test is similar to that of the light/dark transition test. […] The apparatus consists of two open-arms and two enclosed-arms. The elevated plus-maze test allows for two measures of anxiety, the number of entries into the open-arms and the time spent on the open-arms, both expressed as a percentage of the total number of entries and time spent in/on both the open-arms and enclosed-arms.
Male N.LH. Swiss-Webster mice (Harlan, Indianapolis, IN) weighing 15-20 g were housed four per cage in polyethylene cages with sawdust bedding. The colony mom was environmentally controlled (22°C) with a 12^- hr light/dark cycle (0600-1800 hr). Food and water were available ad libitum, except during testing. The experiments were run from 0700-1500 hr and groups were counterbalance for time of day effects. Mice were only administered drug or vehicle once.
The apparatus included two open arms perpendicular to two enclosed arms elevated 50 cm from the floor. Each arm was 50 cm long and the walls of the enclosed arms were 40 cm tall. The maze was made completely of black plexiglass. Incandescent 200 W light bulbs were above each of the open arms to produce a strong contrast between the open arms and the enclosed arms.
Ten minutes after an injection, the N.I.H. Swiss-Webster mice were placed in the center of the plus-maze facing an open arm. During the 5 min test period, the number of entries onto the open arms and the enclosed arms, and the time spent in the open arms and enclosed arms were measured. All four paws had to be within an arm for the dependent variable to be measured. Therefore, the time spent in the center of the maze is not counted, so the total time spent in the open arms and the enclosed arms may not equal 5 min.

By pIC50 is commonly meant −log10 of the IC50, conventionally taken in molar units. In general, inhibition refers to the relative decrease from the control value, in per cent. With `C[C@]12CC[C@@H](O)C[C@@H]1CC[C@@H]1[C@@H]2CC[C@]2(C)[C@@H](C(=O)CO)CC[C@@H]12` [3α,21-dihydroxy-5α-pregnan-20-one], in assay [1], the pIC50 is 7.12 and the IMAX came out at 100%. This compound had an inhibition at 1 µM in assay [2] of 76.7%.
For `CC(=O)[C@H]1CC[C@H]2[C@@H]3CC[C@H]4C[C@H](O)CC[C@]4(C)[C@H]3CC[C@]12C` [3α-Hydroxy-5α-pregnan-20-one, 3α-hydroxy-5α-pregnan-20-one], the “number of transitions between the dark box and the light box, in words” value in assay [3] is on record as “significantly increased”. Also, in assay [1], the pIC50 is 7.43 and the IMAX was determined as 95%. In assay [4], the “dose producing significant increase in entries into the open-arms” value is 20 mg/kg.

The values above are taken from patent publication EP1038880B1, “Androstanes and pregnanes for allosteric modulation of GABA receptor” (priority 1994, dated 1995).
